Measurements from patent US4530714A, “N-aliphatic and N,N-aliphatic phosphoric triamide urease inhibitors and urease inhibited urea based fertilizer compositions” (Allied Corporation, priority 1984, dated 1985).

Legend:
urease [1] = assay: Soil urease inhibition efficacy test, Cazenovia silt loam (New York soil); assay type: biochemical; conditions: 25° C., three days; for % Inhibition Cazenovian pH 7.3: Cazenovia silt loam pH 7.3, 800 micrograms compound and 42.8 mg urea per 20 g soil; for % Inhibition Cazenovian pH 7.0: Cazenovia silt loam pH 7.0, 200 micrograms compound per 20 g soil
Description: (§1) Efficacy tests were conducted to evaluate the efficacy of certain representative phosphoric triamide compounds as urease inhibitors. The inhibition tests were run in a New York soil (Cazenovia silt loam, pH 7.0 or 7.3) or in a Wisconsin Soil (Plano silt loam, pH 5.3). […] The bottle was capped with perforated aluminum foil and incubated at 25° C. for three days prior to extraction with 100 mL of a 2M potassium chloride solution containing 0.5 mg of phenylmercuric acetate. The extracts were then analyzed for remaining urea using an autoanalyzer. Percent inhibition was calculated as
(§2) % Inhibition=[1-(A-B/A-C)]×100%
(§3) where A is urea recovered from unincubated sample (urea added to soil and immediately extracted); B is urea recovered from inhibited sample; and C is urea recovered from the control (uninhibited sample).

urease [2] = assay: Soil urease inhibition efficacy test, Plano silt loam (Wisconsin soil); assay type: biochemical; conditions: Plano silt loam pH 5.3, 25° C., three days
Description: as §1, §2, §3

urease [3] = assay: Long term urease inhibition, inhibited Cazenovia soil preincubated or left open 11 days before urea application; assay type: biochemical; conditions: 200 micrograms compound; for % Inhibition, Preincubated for 11 days Open: allowed to volatilize for 11 days prior to urea application; for % Inhibition, Preincubated for 11 days at 25° C.: inhibited soil incubated 11 days at 25° C. prior to urea application; for % Inhibition, Preincubated for 11 days at 35° C.: inhibited soil incubated 11 days at 35° C. prior to urea application
Description: Efficacy tests were conducted to evaluate the efficacy of certain representative phosphoric triamide compounds as urease inhibitors. The inhibition tests were run in a New York soil (Cazenovia silt loam, pH 7.0 or 7.3) or in a Wisconsin Soil (Plano silt loam, pH 5.3). Evaluations (run in triplicate) consisted of applying 800 micrograms of the test compound in 5 mL of water and 42.8 mg of urea in 1 mL of water to 20 g of air-dry soil in a glass bottle. The bottle was capped with perforated aluminum foil and incubated at 25° C. for three days prior to extraction with 100 mL of a 2M potassium chloride solution containing 0.5 mg of phenylmercuric acetate. The extracts were then analyzed for remaining urea using an autoanalyzer. Percent inhibition was calculated as
as §2, §3
The percent inhibition observed, as determined by the means described in Example XVI except using 200 micrograms of the test compound, are set forth in Table II

urease [4] = assay: Percent inhibition versus time in soil (FIG. 1, FIG. 2); assay type: biochemical; conditions: soil at 25° C. (FIG. 1) and 35° C. (FIG. 2); compared with phenyl phosphorodiamidate
Description: FIG. 1 is a plot of percent inhibition versus time in soils at 25° C. for N,N-diethylphosphorictriamide, a urease inhibitor useful in the practice of this invention, and for the known urease inhibitor, phenyl phosphorodiamidate, and FIG. 2 is a plot of percent inhibition versus time in soil at 35° C. for the same compounds.

[5] = Solubility in water (as needed for efficacy test); assay type: physicochemical; conditions: efficacy test application
[6] = 800 micrograms compound and 42.8 mg urea per 20 g soil
[7] = 200 micrograms compound per 20 g soil

In the case of `CN(Cc1ccccc1)P(N)(N)=O` [Compound 4, N-Benzyl-N-methylphosphoric Triamide], the “% Inhibition Cazenovian pH 7.3” value (urease [1]) is reported as 96%.
With `CCCCCCCCCCCCNP(N)(N)=O` [Compound 13, N-(n-Dodecyl)phosphoric Triamide] the “% Inhibition Wisconsin pH 5.3” value (urease [2]; [6]) was 28% and the “% Inhibition Cazenovian pH 7.3” value (urease [1]) was 81%.
In the case of `NP(N)(=S)N1CCCC1` [Compound 19, N-(Diaminothiophosphinyl)pyrrolidine], the “% Inhibition Wisconsin pH 5.3” value (urease [2]; [7]) is reported as 23% and the “% Inhibition Cazenovian pH 7.0” value (urease [1]) is reported as 77%.
With `CCNP(N)(N)=O` [Compound 8, N-Ethylphosphoric Triamide] the “% Inhibition Wisconsin pH 5.3” value (urease [2]; [6]) was 47%, the “% Inhibition Cazenovian pH 7.3” value (urease [1]) was 99% and the “% Inhibition, Preincubated for 11 days Open” value (urease [3]) was 72%. For the same compound, the “% Inhibition, Preincubated for 11 days at 25° C.” value (“% Inhibition … at 25° C.” below) (urease [3]) was 74%, the “% Inhibition, Preincubated for 11 days at 35° C.” value (“% Inhibition … at 35° C.” below) (urease [3]) was 55% and the “% Inhibition, No Preincubation” value (urease [3]) was 95%.
With `CCCCCCCCNP(N)(N)=O` [Compound 12, N-(n-Octyl)phosphoric Triamide] the “% Inhibition Wisconsin pH 5.3” value (urease [2]; [6]) was 51%, the “% Inhibition Cazenovian pH 7.3” value (urease [1]) was 98% and the “% Inhibition, Preincubated for 11 days Open” value (urease [3]) was 66%. For the same compound, the “% Inhibition … at 25° C.” value (urease [3]) was 39%, the “% Inhibition … at 35° C.” value (urease [3]) was 36% and the “% Inhibition, No Preincubation” value (urease [3]) was 95%.
In the case of `CCN(CC)P(N)(N)=S` [Compound 14, N,N-Diethylthiophosphoric Triamide], the “% Inhibition Wisconsin pH 5.3” value (urease [2]; [6]) is reported as 53% and the “% Inhibition Cazenovian pH 7.3” value (urease [1]) is reported as 61%.
In the case of `CCCCNP(N)(N)=S` [Compound 10, N-(n-Butyl)thiophosphoric Triamide], the “% Inhibition Wisconsin pH 5.3” value (urease [2]; [6]) is reported as 95%, the “% Inhibition Cazenovian pH 7.3” value (urease [1]) is reported as 98% and the “% Inhibition, Preincubated for 11 days Open” value (urease [3]) is reported as 94%. For the same compound, the “% Inhibition … at 25° C.” value (urease [3]) was 98%, the “% Inhibition … at 35° C.” value (urease [3]) was 89% and the “% Inhibition, No Preincubation” value (urease [3]) was 90%.
With `NP(N)(=O)N1CCCCC1` [Compound 6, N-(Diaminophosphinyl)piperidine] the “% Inhibition Cazenovian pH 7.3” value (urease [1]) was 94%.
In the case of `CCC(C)NP(N)(N)=S` (stereo not shown) [Compound 20, N-(sec-Butyl)thiophosphoric Triamide], the “% Inhibition Wisconsin pH 5.3” value (urease [2]; [7]) is reported as 51% and the “% Inhibition Cazenovian pH 7.0” value (urease [1]) is reported as 65%.
For `NP(N)(=S)NC1CCCCC1` [Compound 17, N-Cyclohexylthiophosphoric Triamide], the “% Inhibition Wisconsin pH 5.3” value (urease [2]; [7]) was 58% and the “% Inhibition Cazenovian pH 7.0” value (urease [1]) was 84%.
For `CCCCCCNP(N)(N)=S` [Compound 18, N-(n-Hexyl)thiophosphoric Triamide], the “% Inhibition Wisconsin pH 5.3” value (urease [2]; [7]) was 52% and the “% Inhibition Cazenovian pH 7.0” value (urease [1]) was 97%.
In the case of `NP(N)(=O)NC1CCCCC1` [Compound 5, N-Cyclohexylphosphoric Triamide], the “% Inhibition Cazenovian pH 7.3” value (urease [1]) is reported as 98%.
In the case of `C=CCNP(N)(N)=O` [Compound 3, N-Allylphosphoric Triamide], the “% Inhibition Cazenovian pH 7.3” value (urease [1]) is reported as 93%.
For `CN(Cc1ccccc1)P(N)(N)=S` [Compound 16, N-Benzyl-N-methylthiophosphoric Triamide], the “% Inhibition Wisconsin pH 5.3” value (urease [2]; [7]) was 24% and the “% Inhibition Cazenovian pH 7.0” value (urease [1]) was 43%.
With `CN(C)P(N)(N)=O` [Compound 2, N,N-Dimethylphosphoric Triamide] the “% Inhibition Cazenovian pH 7.3” value (urease [1]) was 98%.
In the case of `CCCCNP(N)(N)=O` [Compound 9, N-(n-Butyl)phosphoric Triamide], the “% Inhibition Wisconsin pH 5.3” value (urease [2]; [6]) is reported as 52%, the “% Inhibition Cazenovian pH 7.3” value (urease [1]) is reported as 99% and the “% Inhibition, Preincubated for 11 days Open” value (urease [3]) is reported as 78%. The “% Inhibition … at 25° C.” value (urease [3]) was 75%, the “% Inhibition … at 35° C.” value (urease [3]) was 68% and the “% Inhibition, No Preincubation” value (urease [3]) was 96%.
For `CCC(C)NP(N)(N)=O` (stereo not shown) [Compound 11, N-(sec-Butyl)phosphoric Triamide], the “% Inhibition Wisconsin pH 5.3” value (urease [2]; [6]) was 66%, the “% Inhibition Cazenovian pH 7.3” value (urease [1]) was 96% and the “% Inhibition, Preincubated for 11 days Open” value (urease [3]) was 77%. The “% Inhibition … at 25° C.” value (urease [3]) was 90%, the “% Inhibition … at 35° C.” value (urease [3]) was 85% and the “% Inhibition, No Preincubation” value (urease [3]) was 92%.
For `CCN(CC)P(N)(N)=O` [Compound 1, N,N-Diethylphosphoric Triamide], the “duration of the urease inhibiting activity” value (urease [4]) was “much superior” and the “% Inhibition Cazenovian pH 7.3” value (urease [1]) was 94%.
For `CCCCN(CCCC)P(N)(N)=S` [Compound 23, N,N-Di-(n-Butyl)thiophosphoric Triamide], the “% Inhibition Wisconsin pH 5.3” value (urease [2]; [7]) was 37% and the “% Inhibition Cazenovian pH 7.0” value (urease [1]) was 67%.
For `CN(C1CCCCC1)P(N)(N)=O` [Compound 15, N-Cyclohexyl-N-methylphosphoric Triamide], the “% Inhibition Wisconsin pH 5.3” value (urease [2]; [6]) was 48%, the “% Inhibition Cazenovian pH 7.3” value (urease [1]) was 92% and the “% Inhibition, Preincubated for 11 days Open” value (urease [3]) was 67%. For the same compound, the “% Inhibition … at 25° C.” value (urease [3]) was 78%, the “% Inhibition … at 35° C.” value (urease [3]) was 78% and the “% Inhibition, No Preincubation” value (urease [3]) was 80%.
In the case of `NP(N)(=S)N1CCCCC1` [Compound 22, N-(Diaminothiophosphinyl)piperidine], the “% Inhibition Wisconsin pH 5.3” value (urease [2]; [7]) is reported as 0% and the “% Inhibition Cazenovian pH 7.0” value (urease [1]) is reported as 66%.
For `CC(C)N(C(C)C)P(N)(N)=S` [Compound 21, N,N-Diisopropylthiophosphoric Triamide], the solubility in water [5] was “too insoluble in water to obtain significant data”.
For `CC(C)NP(N)(N)=O` [Compound 7, N-Isopropylphosphoric Triamide], the “% Inhibition Cazenovian pH 7.3” value (urease [1]) was 97%.
For `NP(N)(=O)Oc1ccccc1` [Phenyl Phosphorodiamidate, phenyl phosphorodiamidate, reference compound], the “% Inhibition, Preincubated for 11 days Open” value (urease [3]) was 50%, the “% Inhibition … at 25° C.” value (urease [3]) was 26% and the “% Inhibition … at 35° C.” value (urease [3]) was 16%. For the same compound, the “% Inhibition, No Preincubation” value (urease [3]) was 76%.
